Measurements published in PubChem BioAssay AID330 (DTP/NCI, 2004).
Several values for one entry are separate records, joined by “and”; a condition that tells them apart may be missing. Equal values may be shown once. Inconclusive results and toxic doses are left out. How the source made its calls: active means survival T/C of 150% or more; inactive means T/C below 125% in these data.

Tested on: P388 leukemia ip, CD2F1 mice, survival T/C
Experiment: NCI In Vivo Anticancer Drug Screen. Data for tumor model P388 Leukemia (intraperitoneal) in CD2F1 (CDF1) mice
Conditions: endpoint: median survival time, higher = longer survival
In short: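 Mice carrying the transplanted tumor received test compound or vehicle. Survival was recorded in each group, and the value is the treated-group measurement divided by that of the vehicle-treated control group.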

[1] = dose: 50.0 mg/kg/injection, schedule: Q01DX005 (ip), vehicle: distilled water + Tween-80
[2] = dose: 100.0 mg/kg/injection, schedule: Q01DX005 (ip), vehicle: distilled water + Tween-80
[3] = dose: 200.0 mg/kg/injection, schedule: Q01DX005 (ip), vehicle: distilled water + Tween-80
[4] = dose: 60.0 mg/kg/injection, schedule: Q01DX005 (ip), vehicle: saline with Tween-80
[5] = dose: 120.0 mg/kg/injection, schedule: Q01DX005 (ip), vehicle: saline with Tween-80
[6] = dose: 240.0 mg/kg/injection, schedule: Q01DX005 (ip), vehicle: saline with Tween-80
[7] = dose: 25.0 mg/kg/injection, schedule: Q01DX009 (ip), vehicle: saline with Tween-80
[8] = dose: 200.0 mg/kg/injection, schedule: Q01DX005 (ip), vehicle: Klucel (hydroxypropylcellulose) (HPC)
[9] = dose: 50.0 mg/kg/injection, schedule: Q01DX005 (ip), vehicle: saline with Tween-80
[10] = dose: 100.0 mg/kg/injection, schedule: Q01DX005 (ip), vehicle: saline with Tween-80
[11] = dose: 200.0 mg/kg/injection, schedule: Q01DX005 (ip), vehicle: saline with Tween-80
[12] = dose: 50.0 mg/kg/injection, schedule: Q01DX009 (ip), vehicle: saline
[13] = dose: 100.0 mg/kg/injection, schedule: Q01DX009 (ip), vehicle: saline
[14] = dose: 200.0 mg/kg/injection, schedule: Q01DX009 (ip), vehicle: saline
[15] = dose: 50.0 mg/kg/injection, schedule: Q01DX005 (ip), vehicle: Klucel (hydroxypropylcellulose) (HPC)
[16] = dose: 100.0 mg/kg/injection, schedule: Q01DX005 (ip), vehicle: Klucel (hydroxypropylcellulose) (HPC)
[17] = dose: 50.0 mg/kg/injection, schedule: Q01DX009 (ip), vehicle: Klucel (hydroxypropylcellulose) (HPC)
[18] = dose: 100.0 mg/kg/injection, schedule: Q01DX009 (ip), vehicle: Klucel (hydroxypropylcellulose) (HPC)
[19] = dose: 200.0 mg/kg/injection, schedule: Q01DX009 (ip), vehicle: Klucel (hydroxypropylcellulose) (HPC)
[20] = dose: 12.5 mg/kg/injection, schedule: Q01DX005 (ip), vehicle: saline with Tween-80
[21] = dose: 25.0 mg/kg/injection, schedule: Q01DX005 (ip), vehicle: saline with Tween-80

Measured: T/C

COc1ccc(C(C)c2cc3c(cc2OCCO)OCO3)cc1O (stereo unspecified)
inactive: [1] 97 % of control | [2] 99 % of control | [3] 98 % of control

O=C1C(O)=C(c2ccccc2)C12CSC1(CS2)C(=O)C(O)=C1c1ccccc1 (stereo unspecified)
inactive: [4] 100 % of control | [5] 94 % of control | [6] 91 % of control

C[N+](C)(C)CCC(=O)c1ccco1
inactive: dose: 6.25 mg/kg/injection, schedule: Q01DX009 (ip), vehicle: saline 117 % of control | dose: 12.5 mg/kg/injection, schedule: Q01DX009 (ip), vehicle: saline 117 % of control | [7] 111 % of control | dose: 25.0 mg/kg/injection, schedule: Q01DX009 (ip), vehicle: saline 106 % of control

c1ccc(-c2nc3cccnc3s2)cc1
inactive: [4] 101 % of control | [5] 101 % of control | [6] 104 % of control

Cc1cc2c(cc1C)Nc1oc3ccc4ccccc4c3c(=O)c1C=N2
inactive: dose: 6.25 mg/kg/injection, schedule: Q01DX005 (ip), vehicle: Klucel (hydroxypropylcellulose) (HPC) 104 % of control | dose: 12.5 mg/kg/injection, schedule: Q01DX005 (ip), vehicle: Klucel (hydroxypropylcellulose) (HPC) 99 % of control | dose: 25.0 mg/kg/injection, schedule: Q01DX005 (ip), vehicle: Klucel (hydroxypropylcellulose) (HPC) 96 % of control | [8] 89 % of control

CCOC(=O)c1cn(C2OC(CO)C(O)C2O)c(=O)nc1N (stereo unspecified)
inactive: dose: 50.0 mg/kg/injection, schedule: Q04DX003 (ip), vehicle: saline 99 % of control | dose: 100.0 mg/kg/injection, schedule: Q04DX003 (ip), vehicle: saline 100 % of control | dose: 200.0 mg/kg/injection, schedule: Q04DX003 (ip), vehicle: saline 100 % of control | dose: 400.0 mg/kg/injection, schedule: Q04DX003 (ip), vehicle: saline 102 % of control

COc1cc2cc(/C(C)=N/OCC3CO3)c(Cl)nc2cc1OC (stereo unspecified)
inactive: [9] 96 % of control | [10] 93 % of control | [11] 92 % of control

C#CCN(CC#C)S(=O)(=O)c1ccc(C)cc1
inactive: [12] 104 % of control | [13] 108 % of control | [14] 108 % of control

Cc1cc(C(O)(C(F)(F)F)C(F)(F)F)c2c(c1)C(C(F)(F)F)(C(F)(F)F)OC(C)(C)N2
inactive: [15] 100 % of control | [16] 100 % of control | [8] 101 % of control

CC(=O)NCCCC(=O)O
inactive: [14] 98 % of control

COc1cc(O)c2c(=O)c3c(O)c(OC4OC(COC5OC(C)C(O)C(O)C5O)C(O)C(O)C4O)ccc3oc2c1 (stereo unspecified)
inactive: dose: 1.5 mg/kg/injection, schedule: Q01DX009 (ip), vehicle: saline 107 % of control | dose: 3.0 mg/kg/injection, schedule: Q01DX009 (ip), vehicle: saline 103 % of control | dose: 6.0 mg/kg/injection, schedule: Q01DX009 (ip), vehicle: saline 100 % of control | dose: 12.0 mg/kg/injection, schedule: Q01DX009 (ip), vehicle: saline 99 % of control

S=C(SSC(=S)N1CCOCC1)N1CCOCC1
inactive: dose: 15.0 mg/kg/injection, schedule: Q01DX005 (ip), vehicle: saline with Tween-80 97 % of control | dose: 30.0 mg/kg/injection, schedule: Q01DX005 (ip), vehicle: saline with Tween-80 102 % of control | [4] 102 % of control and 107 % of control | [5] 104 % of control

CC1(C)N=C(N)N=C(N)N1c1cccc(CCCCc2ccccc2)c1
inactive: dose: 0.75 mg/kg/injection, schedule: Q01DX009 (ip), vehicle: saline sonified 109 % of control | dose: 1.5 mg/kg/injection, schedule: Q01DX009 (ip), vehicle: saline sonified 113 % of control | dose: 3.0 mg/kg/injection, schedule: Q01DX009 (ip), vehicle: saline sonified 118 % of control | dose: 50.0 mg/kg/injection, schedule: Q04DX003 (ip), vehicle: saline sonified 86 % of control

Cc1ccc2nc(NC(=S)NCCCCCCNC(=S)Nc3ccc4cc(C)ccc4n3)ccc2c1
inactive: [17] 93 % of control | [18] 93 % of control

CC1OC(OC2C(OC3C[C@@]4(C)C(C[C@H](O)[C@H]5[C@H](C6(C)CCC(C(C)(C)O)O6)CCC54C)[C@]4(C)CC[C@@H](O)C(C)(C)C34)OC(CO)C(O)C2O)C(O)C(O)C1O (stereo partly specified) (tested in a mixture with another compound)
inactive: [17] 101 % of control | [18] 101 % of control | [19] 94 % of control

NS(=O)(=O)c1cc(S(=O)(=O)Cl)ccc1Cl
inactive: [20] 100 % of control | [21] 100 % of control | [9] 99 % of control and 94 % of control

COC(=O)C1=CN(C)C(c2ccccc2)C=C1 (stereo unspecified)
inactive: [9] 103 % of control | [10] 107 % of control | [11] 112 % of control

CCCN(CCC)CN(CCC)CCC
inactive: [12] 106 % of control | [13] 105 % of control

CCN(CC)CCCNc1nnnc2ccccc12
inactive: dose: 100.0 mg/kg/injection, schedule: Q04DX002 (ip), vehicle: saline 103 % of control | dose: 200.0 mg/kg/injection, schedule: Q04DX002 (ip), vehicle: saline 90 % of control

CNC(=O)OCC1=C(Sc2ccccc2)C(=O)C(OC)=C(OC)C1=O
inactive: [20] 106 % of control | [21] 108 % of control | [9] 103 % of control and 110 % of control

COc1ccc(C(C)c2cc3c(cc2O)OCO3)cc1 (stereo unspecified)
inactive: [1] 105 % of control | [2] 99 % of control | [3] 108 % of control

Cc1nn(C(N)=S)c(C)c1N=Nc1ccc([N+](=O)[O-])cc1
inactive: dose: 100.0 mg/kg/injection, schedule: Q01DX001 (ip), vehicle: Klucel (hydroxypropylcellulose) (HPC) 104 % of control | dose: 200.0 mg/kg/injection, schedule: Q01DX001 (ip), vehicle: Klucel (hydroxypropylcellulose) (HPC) 108 % of control | dose: 400.0 mg/kg/injection, schedule: Q01DX001 (ip), vehicle: Klucel (hydroxypropylcellulose) (HPC) 113 % of control

COc1cc(C2SCC(=O)N2c2nncs2)c([N+](=O)[O-])cc1OC (stereo unspecified)
inactive: [15] 91 % of control | [16] 91 % of control | [8] 89 % of control

COc1cc(O)c(C(C)=O)c(O)c1
inactive: dose: 6.25 mg/kg/injection, schedule: Q01DX009 (ip), vehicle: saline with Tween-80 102 % of control | dose: 12.5 mg/kg/injection, schedule: Q01DX009 (ip), vehicle: saline with Tween-80 93 % of control | [7] 102 % of control | dose: 50.0 mg/kg/injection, schedule: Q01DX009 (ip), vehicle: saline with Tween-80 100 % of control

CCCCN1C(=O)C(=O)N(CCc2ccc(OC)c(OC)c2)C1=O
inactive: [17] 91 % of control | [18] 86 % of control | [19] 91 % of control

COc1cc2c(cc1OCc1ccccc1)C(Cc1cc(Br)sc1Br)=NCC2
inactive: [15] 88 % of control | [16] 90 % of control | [8] 92 % of control

O=c1[nH]c(=S)ccn1C1OC(CO)C(O)C1O (stereo unspecified)
inactive: [12] 97 % of control | [13] 101 % of control | [14] 93 % of control

O=C(OCC(Cl)(Cl)Cl)N1[C@@H]2C=C[C@@H](N1C(=O)OCC(Cl)(Cl)Cl)[C@@]13CCCC21O3 (stereo partly specified)
inactive: [15] 103 % of control | [16] 105 % of control | [8] 103 % of control
